Results as given in ChEMBL document CHEMBL1201862, “PubChem BioAssay data set” (2004).
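Step 1: Grow cells in 96-well plates. Step 2: Expose to compound for 48 hours at 5 concentrations. Step 3: Interpolate endpoints linearly; if unreached, use highest concentration. Abbreviation: GI50, concentration required for 50% inhibition of growth.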 Active and inactive are the calls of the source. Cut-off read from the data, not from the text of the source: active = GI50 up to about 1.1 µM and inactive = higher.

Key:
Test in all cases: inhibition of tumour cell growth, NCI panel, 48 h
UO-31 = tested on: UO-31
RPMI-8226 = tested on: RPMI-8226
SNB-19 = tested on: SNB-19
U-251 = tested on: U-251
SW-620 = tested on: SW-620
SK-MEL-2 = tested on: SK-MEL-2
SNB-75 = tested on: SNB-75
SF-295 = tested on: SF-295
NCI-H23 = tested on: NCI-H23
Hs-578T = tested on: Hs-578T
TK-10 = tested on: TK-10
Malme-3M = tested on: Malme-3M
T47D = tested on: T47D
SR = tested on: SR
UACC-62 = tested on: UACC-62
K562 = tested on: K562
HOP-62 = tested on: HOP-62
CAKI-1 = tested on: CAKI-1
DU-145 = tested on: DU-145
M14 = tested on: M14
786-0 = tested on: 786-0
SK-OV-3 = tested on: SK-OV-3
OVCAR-4 = tested on: OVCAR-4
NCI/ADR-RES = tested on: NCI/ADR-RES
MOLT-4 = tested on: MOLT-4
MDA-MB-435 = tested on: MDA-MB-435
SF-268 = tested on: SF-268
MDA-N = tested on: MDA-N
A549 = tested on: A549
NCI-H226 = tested on: NCI-H226
EKVX = tested on: EKVX
HCT-116 = tested on: HCT-116
UACC-257 = tested on: UACC-257
ACHN = tested on: ACHN
OVCAR-5 = tested on: OVCAR-5
A498 = tested on: A498
HCT-15 = tested on: HCT-15
SN12C = tested on: SN12C
KM12 = tested on: KM12
OVCAR-8 = tested on: OVCAR-8
BT-549 = tested on: BT-549
HT-29 = tested on: HT-29
NCI-H522 = tested on: NCI-H522
RXF 393 = tested on: RXF 393
CCRF-CEM = tested on: CCRF-CEM
OVCAR-3 = tested on: OVCAR-3
PC-3 = tested on: PC-3
LOX IMVI = tested on: LOX IMVI
MDA-MB-231 = tested on: MDA-MB-231
IGROV-1 = tested on: IGROV-1
HOP-92 = tested on: HOP-92
SK-MEL-28 = tested on: SK-MEL-28
SK-MEL-5 = tested on: SK-MEL-5
COLO 205 = tested on: COLO 205
HCC 2998 = tested on: HCC 2998
NCI-H460 = tested on: NCI-H460
HL-60 = tested on: HL-60
MCF7 = tested on: MCF7
SF-539 = tested on: SF-539

## Cc1ccc(/N=N/c2c(O)ccc3ccccc23)cc1
UO-31
  GI50: > 100 µM (inactive)
RPMI-8226
  GI50: 99.3 µM (inactive)
SNB-19
  GI50: 95.7 µM (inactive)
U-251
  GI50: 53.6 µM (inactive)
SW-620
  GI50: 63.4 µM (inactive)
SK-MEL-2
  GI50: > 100 µM (inactive)
SNB-75
  GI50: > 100 µM (inactive)
SF-295
  GI50: > 100 µM (inactive)
NCI-H23
  GI50: > 100 µM (inactive)
Hs-578T
  GI50: > 100 µM (inactive)
TK-10
  GI50: > 100 µM (inactive)
Malme-3M
  GI50: > 100 µM (inactive)
T47D
  GI50: > 100 µM (inactive)
SR
  GI50: 11.7 µM (inactive)
UACC-62
  GI50: > 100 µM (inactive)
K562
  GI50: > 10 µM (inactive)
HOP-62
  GI50: 82 µM (inactive)
CAKI-1
  GI50: > 100 µM (inactive)
DU-145
  GI50: > 100 µM (inactive)
M14
  GI50: > 100 µM (inactive)
786-0
  GI50: > 100 µM (inactive)
SK-OV-3
  GI50: > 100 µM (inactive)
OVCAR-4
  GI50: > 100 µM (inactive)
NCI/ADR-RES
  GI50: > 100 µM (inactive)
MOLT-4
  GI50: 46.8 µM (inactive)
MDA-MB-435
  GI50: > 100 µM (inactive)
SF-268
  GI50: > 100 µM (inactive)
MDA-N
  GI50: > 100 µM (inactive)
A549
  GI50: > 100 µM (inactive)
NCI-H226
  GI50: > 100 µM (inactive)
EKVX
  GI50: > 100 µM (inactive)
HCT-116
  GI50: > 100 µM (inactive)
UACC-257
  GI50: > 100 µM (inactive)
ACHN
  GI50: > 100 µM (inactive)
OVCAR-5
  GI50: > 100 µM (inactive)
A498
  GI50: > 100 µM (inactive)
HCT-15
  GI50: 64 µM
SN12C
  GI50: > 100 µM (inactive)
KM12
  GI50: 98.6 µM (inactive)
OVCAR-8
  GI50: > 100 µM (inactive)
BT-549
  GI50: > 100 µM (inactive)
HT-29
  GI50: > 100 µM (inactive)
NCI-H522
  GI50: > 100 µM (inactive)
RXF 393
  GI50: > 100 µM (inactive)
CCRF-CEM
  GI50: 27.1 µM (inactive)
OVCAR-3
  GI50: 32.4 µM (inactive)
PC-3
  GI50: 83 µM (inactive)
LOX IMVI
  GI50: > 100 µM (inactive)
MDA-MB-231
  GI50: > 100 µM (inactive)
IGROV-1
  GI50: > 100 µM (inactive)
HOP-92
  GI50: > 100 µM (inactive)
SK-MEL-28
  GI50: > 100 µM (inactive)
SK-MEL-5
  GI50: > 100 µM (inactive)
COLO 205
  GI50: > 100 µM (inactive)

## Cn1c(=O)c2nc(CCCCC(=O)O)[nH]c2n(C)c1=O
UO-31
  GI50: > 100 µM (inactive)
SNB-19
  GI50: > 100 µM (inactive)
U-251
  GI50: > 100 µM (inactive)
SW-620
  GI50: > 100 µM (inactive)
SK-MEL-2
  GI50: > 100 µM (inactive)
SNB-75
  GI50: > 100 µM (inactive)
SF-295
  GI50: > 100 µM (inactive)
NCI-H23
  GI50: > 100 µM (inactive)
Hs-578T
  GI50: 68.5 µM (inactive)
TK-10
  GI50: > 100 µM (inactive)
Malme-3M
  GI50: > 100 µM (inactive)
T47D
  GI50: > 100 µM (inactive)
HCC 2998
  GI50: > 100 µM (inactive)
UACC-62
  GI50: > 100 µM (inactive)
HOP-62
  GI50: > 100 µM (inactive)
CAKI-1
  GI50: > 100 µM (inactive)
DU-145
  GI50: > 100 µM (inactive)
M14
  GI50: > 100 µM (inactive)
786-0
  GI50: > 100 µM (inactive)
OVCAR-4
  GI50: > 100 µM (inactive)
NCI/ADR-RES
  GI50: > 100 µM (inactive)
MOLT-4
  GI50: > 100 µM (inactive)
MDA-MB-435
  GI50: > 100 µM (inactive)
SF-268
  GI50: > 100 µM (inactive)
MDA-N
  GI50: > 100 µM (inactive)
A549
  GI50: > 100 µM (inactive)
NCI-H226
  GI50: > 100 µM (inactive)
EKVX
  GI50: > 100 µM (inactive)
HCT-116
  GI50: > 100 µM (inactive)
UACC-257
  GI50: > 100 µM (inactive)
ACHN
  GI50: > 100 µM (inactive)
NCI-H460
  GI50: > 100 µM (inactive)
OVCAR-5
  GI50: > 100 µM (inactive)
A498
  GI50: > 100 µM (inactive)
HCT-15
  GI50: > 100 µM
SN12C
  GI50: > 100 µM (inactive)
KM12
  GI50: > 100 µM (inactive)
OVCAR-8
  GI50: > 100 µM (inactive)
BT-549
  GI50: > 100 µM (inactive)
HT-29
  GI50: > 100 µM (inactive)
NCI-H522
  GI50: > 100 µM (inactive)
RXF 393
  GI50: > 100 µM (inactive)
CCRF-CEM
  GI50: > 100 µM (inactive)
OVCAR-3
  GI50: > 100 µM (inactive)
PC-3
  GI50: > 100 µM (inactive)
LOX IMVI
  GI50: > 100 µM (inactive)
MDA-MB-231
  GI50: > 100 µM (inactive)
IGROV-1
  GI50: 61.7 µM (inactive)
HOP-92
  GI50: > 100 µM (inactive)
SK-MEL-28
  GI50: > 100 µM (inactive)
SK-MEL-5
  GI50: > 100 µM (inactive)

## O/N=N\c1nc(-c2cccnc2)nc2ccccc12
UO-31
  GI50: 17.5 µM (inactive)
SNB-19
  GI50: > 100 µM (inactive)
U-251
  GI50: > 100 µM (inactive)
SW-620
  GI50: > 100 µM (inactive)
HL-60
  GI50: > 100 µM (inactive)
SNB-75
  GI50: 33.3 µM (inactive)
SF-295
  GI50: > 100 µM (inactive)
NCI-H23
  GI50: > 100 µM (inactive)
Hs-578T
  GI50: > 100 µM (inactive)
TK-10
  GI50: > 100 µM (inactive)
T47D
  GI50: > 100 µM (inactive)
HCC 2998
  GI50: 87.9 µM (inactive)
MCF7
  GI50: > 100 µM (inactive)
UACC-62
  GI50: > 100 µM (inactive)
K562
  GI50: > 100 µM (inactive)
HOP-62
  GI50: > 100 µM (inactive)
CAKI-1
  GI50: > 100 µM (inactive)
DU-145
  GI50: > 100 µM (inactive)
M14
  GI50: > 100 µM (inactive)
786-0
  GI50: > 100 µM (inactive)
SK-OV-3
  GI50: > 100 µM (inactive)
OVCAR-4
  GI50: > 100 µM (inactive)
NCI/ADR-RES
  GI50: > 100 µM (inactive)
MOLT-4
  GI50: > 100 µM (inactive)
SF-268
  GI50: > 100 µM (inactive)
MDA-N
  GI50: > 100 µM (inactive)
A549
  GI50: > 100 µM (inactive)
SF-539
  GI50: > 100 µM (inactive)
NCI-H226
  GI50: > 100 µM (inactive)
EKVX
  GI50: > 100 µM (inactive)
HCT-116
  GI50: > 100 µM (inactive)
UACC-257
  GI50: > 100 µM (inactive)
ACHN
  GI50: > 100 µM (inactive)
NCI-H460
  GI50: > 100 µM (inactive)
OVCAR-5
  GI50: > 100 µM (inactive)
A498
  GI50: > 100 µM (inactive)
HCT-15
  GI50: 96.8 µM
SN12C
  GI50: > 100 µM (inactive)
KM12
  GI50: > 100 µM (inactive)
OVCAR-8
  GI50: > 100 µM (inactive)
BT-549
  GI50: > 100 µM (inactive)
HT-29
  GI50: 47.8 µM (inactive)
NCI-H522
  GI50: > 100 µM (inactive)
CCRF-CEM
  GI50: > 100 µM (inactive)
OVCAR-3
  GI50: > 100 µM (inactive)
PC-3
  GI50: > 100 µM (inactive)
MDA-MB-231
  GI50: > 100 µM (inactive)
IGROV-1
  GI50: > 100 µM (inactive)
SK-MEL-28
  GI50: > 100 µM (inactive)
SK-MEL-5
  GI50: > 100 µM (inactive)
COLO 205
  GI50: 75.5 µM (inactive)
